Key:
hMAO-B = target: T1, hMAO-B (Homo sapiens, UniProt P27338); assay: MAO-B inhibition assay (Amplex Red, horseradish peroxidase-coupled); type: biochemical; conditions: at 10 μM; read-out: hMAO-B inhibition (IC50 hMAO-B)
T1 construct: purchased Sigma M7441
T1 sequence (P27338 1-520): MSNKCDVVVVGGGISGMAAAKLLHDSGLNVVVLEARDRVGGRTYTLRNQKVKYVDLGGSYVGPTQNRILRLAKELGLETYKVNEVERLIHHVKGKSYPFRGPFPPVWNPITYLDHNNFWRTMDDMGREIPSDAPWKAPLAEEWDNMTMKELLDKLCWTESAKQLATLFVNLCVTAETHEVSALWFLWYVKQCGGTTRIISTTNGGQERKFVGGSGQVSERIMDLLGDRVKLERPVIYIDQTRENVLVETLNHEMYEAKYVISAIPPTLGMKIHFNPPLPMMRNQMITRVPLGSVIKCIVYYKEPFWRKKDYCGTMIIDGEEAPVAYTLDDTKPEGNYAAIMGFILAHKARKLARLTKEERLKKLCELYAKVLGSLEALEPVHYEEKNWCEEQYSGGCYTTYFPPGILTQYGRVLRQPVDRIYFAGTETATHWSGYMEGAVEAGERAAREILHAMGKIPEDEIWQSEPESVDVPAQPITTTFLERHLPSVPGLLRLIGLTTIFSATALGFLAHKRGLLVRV
Procedure, shortened: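 Human MAO-A (0.6 U/ml) or MAO-B (2.5 U/ml) in 0.1 M potassium phosphate pH 7.5 with 0.5 mM tyramine, 0.12 mM Amplex Red and HRP; compounds at 0.1 nM-10 μM, 30 min at 37 °C, absorbance at 570 nm. Background set with clorgyline (MAO-A) or deprenyl (MAO-B); IC50 from sigmoidal fits.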

[1] = target: T2, hALDH2 (recombinant human mitochondria ALDH) (Homo sapiens, UniProt P05091); assay: ALDH2 inhibition assay (NADH formation, formaldehyde substrate); type: biochemical
T2 sequence (P05091 18-517): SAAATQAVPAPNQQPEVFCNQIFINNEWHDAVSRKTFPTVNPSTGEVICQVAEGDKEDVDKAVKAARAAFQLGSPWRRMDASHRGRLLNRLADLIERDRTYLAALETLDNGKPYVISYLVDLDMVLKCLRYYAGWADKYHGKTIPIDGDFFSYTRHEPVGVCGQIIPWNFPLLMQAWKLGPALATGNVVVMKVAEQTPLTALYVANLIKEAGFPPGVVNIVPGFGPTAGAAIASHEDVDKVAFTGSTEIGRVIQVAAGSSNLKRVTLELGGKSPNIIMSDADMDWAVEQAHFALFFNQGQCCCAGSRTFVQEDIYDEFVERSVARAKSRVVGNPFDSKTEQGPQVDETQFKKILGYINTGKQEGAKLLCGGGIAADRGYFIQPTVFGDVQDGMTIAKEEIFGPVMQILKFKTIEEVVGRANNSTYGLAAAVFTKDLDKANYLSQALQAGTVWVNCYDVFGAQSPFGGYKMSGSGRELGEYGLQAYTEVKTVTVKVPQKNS
Procedure, shortened: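 1 nM enzyme in 50 mM sodium phosphate pH 7.4 with 1.2 mM NAD+ and compound at 0.03–1000 nM; reaction started with 0.15 mM formaldehyde at 25 °C. NADH formation followed by fluorescence (ex 340/em 460 nm). IC50 from sigmoidal fits with floating Hill slope; apparent Ki from Morrison equation if tight binding.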

hMAO-A = target: T3, hMAO-A (Homo sapiens, UniProt P21397); assay: MAO-A inhibition assay (Amplex Red, horseradish peroxidase-coupled); type: biochemical
T3 construct: purchased Sigma M7316
T3 sequence (P21397 1-527): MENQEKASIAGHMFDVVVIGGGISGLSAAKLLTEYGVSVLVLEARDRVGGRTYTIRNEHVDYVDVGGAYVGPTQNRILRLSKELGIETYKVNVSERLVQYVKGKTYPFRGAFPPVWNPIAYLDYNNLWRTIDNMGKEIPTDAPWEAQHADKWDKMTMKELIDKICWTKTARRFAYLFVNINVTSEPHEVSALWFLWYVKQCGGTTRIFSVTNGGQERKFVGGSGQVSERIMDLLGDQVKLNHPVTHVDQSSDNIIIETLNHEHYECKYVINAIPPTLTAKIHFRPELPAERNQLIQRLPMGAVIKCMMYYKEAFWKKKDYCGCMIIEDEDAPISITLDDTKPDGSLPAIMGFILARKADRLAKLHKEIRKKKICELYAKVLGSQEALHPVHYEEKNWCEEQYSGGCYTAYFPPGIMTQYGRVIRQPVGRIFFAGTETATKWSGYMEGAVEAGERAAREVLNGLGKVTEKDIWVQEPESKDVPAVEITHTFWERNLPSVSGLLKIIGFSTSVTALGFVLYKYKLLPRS
Description: MAO-A (Sigma M7316) and MAO-B (Sigma M7441) inhibition assays were conducted in 96-well micro-plates according to the method described by Zhou et al. [Analytical Biochemistry 253, 169-174, 1997]. Both assays were performed in potassium phosphate buffer (0.1 M, pH 7.5) containing 0.5 mM tyramine (Sigma T2879), 0.12 mM N-acetyl-3,7-dihydrophenoxazine (Amplex Red, Invitrogen A12222), 1.2 unit/ml horseradish peroxidase (Sigma P2088), 0.6 unit/ml MAO-A or 2.5 unit/ml MAO-B, and various concentrations of test compounds (0.1 nM to 10 uM). Reactions were initiated by the addition of a pre-mixed solution of tyramine, horseradish peroxidase and Amplex Red, and were allowed to proceed at 37° C. for 30 min. Enzyme activities were determined by measuring absorbance at 570 nm (SpectralMax Plate reader), absorbance of oxidized Amplex Red generated by this horseradish peroxidase-coupled reaction. Nonspecifically formed products were determined in the presence of 2 and 10 µM clorgyline and deprenyl for MAO-A and MAO-B, respectively. IC50 values were determined by fitting concentration-inhibition data to sigmoidal dose-response curves with two-floating parameters: IC50 and Hill coefficient.

Syrian golden hamsters = conditions: compared with daidzin; cited from earlier work

Row | inhibition at 10 µM (hMAO-B) [%] | IC50 [1] [µM] | IC50 (hMAO-A) [µM] | SMILES | suppressing ethanol uptake (Syrian golden hamsters)
1 | 35 | 0.023 | 6.2 | N#CCOc1ccc2c(=O)c(-c3ccc(O)cc3)coc2c1 [PT-88, 2-[3-(4-hydroxyphenyl)-4-oxochromen-7-yloxy]ethanenitrile] | 
2 |  |  |  | O=c1c(-c2ccc(O)cc2)coc2cc(O)ccc12 [daidzein] | effective in suppressing ethanol uptake, but with decreased potency

Reference: US20090124672A1 (priority 2007, published 2009)
